Assay [1] relates to multiple sclerosis animal model. Nature of the assay: Analysis of efficiency in multiple sclerosis (MS) animal model (MOG35-55/CFA + PTX). In kind it is in vivo, C57BL/6 mice. To be noted: for clinical symptoms (clinical score): 100 μg (5 mg/kg) intraperitoneally once a day from day 7 after PTX. On the procedure:
8-week-old female C57BL/6 mice were purchased from Orient Bio (Daejeon, Korea). All animal experiments were conducted in compliance with the animal experiment operation regulations of the Institutional Animal Care and Use Committee of Hanyang University. The mice were acclimatized for 2 weeks before the experiment. The mice were raised in a breeding room maintained at temperature 22±2° C. and 40-60% humidity with free access to feed. The light and dark cycles were adjusted at 12-hour intervals. Multiple sclerosis was induced by subcutaneous immunization using a MOG35-55/CFA emulsion PTX kit (Hooke Labs, Lawrence, MA, USA) according to the manufacturer's protocol. The mice were anesthetized with isoflurane and MOG35-55/CFA was subcutaneously injected bilaterally, followed by intraperitoneal injection of PTX (pertussis toxin) 2 hours and 24 hours later. The mice were randomly assigned to different groups after MOG immunization. Because paralysis due to immune response begins on day 7 after the injection of PTX, 100 μg (5 mg/kg) of the samples according to the present disclosure were intraperitoneally injected to the groups once a day from day 7. Each group was monitored every day after inducing multiple sclerosis and clinical symptoms were recorded. The clinical symptoms were evaluated based on the scoring system described in Table 2. The higher clinical scores indicate severer symptoms. The mice were euthanized at the end of the experiments and lymphocytes were isolated from the spinal cords. The isolated spinal cords were treated at 37° C. with 1 mg/mL of DNase 1 (10104159001; Sigma-Aldrich) and 1 mg/mL of collagenase D (11088866001; Sigma-Aldrich) and incubated at 80 rpm on a shaker for 40 minutes. After the enzyme treatment, 500 mM EDTA was added and lymphocytes were isolated by Percoll (GE Healthcare, Little Chalfont, UK) density-gradient centrifugation. The isolated infiltrated lymphocytes were restimulated with a cell stimulation cocktail (plus protein transport inhibitors) (ThermoFisher) at 37° C. for 4 hours and stained with anti-mouse CD4. The cells were fixed, permeabilized using a Foxp3/transcription factor staining buffer set (eBioscience) and stained with anti-mouse IFN-γ, anti-mouse IL-17 or anti-mouse Foxp3. The cells were analyzed using a FACS Canto flow cytometer and the FlowJo software version 10.7.1. For histological analysis, paraffin blocks of the spinal cord tissues were deparaffinized and treated with luxol fast blue. For combination staining, hematoxylin and eosin were used (Dako). The cells infiltrated in the white matter region of the spinal cord tissues were counted using the Image J software version 2.0.0. The increased number of Th1 and Th17 immune cells in the spinal cord means more severe multiple sclerosis, and the increased number of Treg cells means that the function of preventing or treating autoimmune disease such as multiple sclerosis is improved as the tolerance to self-antigens is maintained and the excessive response by the immune system is prevented.

Assay [2] concerns Th17 cells differentiated from splenocytes isolated from mouse. Description: Analysis of effect under Th17 differentiation conditions (flow cytometry of IL-17A and Foxp3). To be noted: sample 2 μM; for effect of suppressing immune response (decrease of IL-17 and increase of Foxp3): flow cytometry 4 days later, comparator as named in the value (Th17/PBS control, K1, AP-K2). In kind it is cell-based. The source says: Th17 cells are a subset of CD4 T cells. The Th17 cells are known to secrete a cytokine known as IL-17 and cause inflammation. This is the major cause of autoimmune disease. And, Treg cells (regulatory T cells) are known to suppress and regulate inflammation by expressing the transcription factor called Foxp3. Accordingly, since it is thought that the effect of preventing and treating autoimmune disease may be achieved by regulating inflammation by inhibiting Th17 cells (IL-17) and increasing Treg (Foxp3) cells, the effect of the peptides of the present disclosure was investigated.
Undifferentiated CD4 T cells (naive CD4 T cells) were isolated from splenocytes of 6- to 8-week-old C57BL/6 mice using a mouse undifferentiated CD4+ T cell (naive CD4 T cell) isolation kit (Miltenyi Biotec, Auburn, CA, USA) according to the manufacturer's protocols. For RNAseq, the undifferentiated CD4 T cells (naive CD4 T cells) from the Foxp3-GFP mice were purified, differentiated into Th17 cells and sorted into Foxp3^+ and Foxp3^− populations using a cell sorter (FACS Aria cell sorter BD Biosciences, Franklin Lakes, NJ, USA). The purified undifferentiated CD4 T cells (naive CD4 T cells) were activated with plate-bound anti-CD3 (2 or 5 μg/mL, 553057; BD Pharmingen, La Jolla, CA) and anti-CD28 (2 or 5 μg/mL, 553294; BD Pharmingen, La Jolla, CA) antibodies and differentiated by treating with the following cytokine cocktails in a 96-well plate for 3 or 4 days: Th0; recombinant human TGF-β(R&D Systems) 0.25 ng/mL. Th1; anti-IL-4 (11B11; 16-7041-85; eBioscience) 5 μg/mL, IL-2 (212-12; Peprotech, Rocky Hill, NJ) 50 U/mL, recombinant murine IL-12 (212-12; Peprotech) 2 ng/mL, recombinant human TGF-β (R&D Systems) for Th1 0.25 ng/mL. Th17; anti-IFN-γ (XMG1.2; 16-7311-85; eBioscience) 5 μg/mL, anti-IL-4 (11B11; 16-7041-85; eBioscience) 5 μg/mL, recombinant murine TGF-β (7666-MB, R&D Systems, Minneapolis, MN) 2 ng/mL, IL-6 (216-16; Peprotech) 30 ng/mL, IL-23 (1887-ML-101; R&D Systems) 20 ng/mL, IL-1β (401-ML-010; R&D Systems) 20 ng/mL, and IL-2 (Peprotech) 50 U/mL. Treg; IL-2 (Peprotech) 50 U/mL and TGF-β (R&D Systems) 0.5 ng/mL.
The cells were cotreated with the cytokine cocktails and the samples (2 μM). 4 days later, they were analyzed by flow cytometry using IL-17 and Foxp3 fluorescent antibodies. In some experiments, 5 μM PKC-η pseudosubstrate inhibitor (sc-3096; Santa Cruz) or 5 μM ERK inhibitor (UO126, 662005; Sigma) were also added.
For flow cytometric analysis of living cells only, dead cells were excluded using the Zombie Aqua™ fixable viability kit (Biolegend) before staining with antibodies at room temperature for 10 minutes. After washing, surface proteins of the differentiated Th1, Th17 and Treg cells were stained with monoclonal antibodies at 4° C. for 15 minutes. To determine intracellular cytokine levels, the cells were restimulated with a cell stimulation cocktail (plus protein transport inhibitors) (ThermoFisher) at 37° C. for 4 hours and then stained with surface marker antibodies. The cells were then fixed, permeabilized using a Foxp3/transcription factor staining buffer set (eBioscience) and stained with anti-mouse IFN-γ, anti-mouse IL-17 and anti-mouse Foxp3. The cells were analyzed using a FACS Canto II flow cytometer and the FlowJo software version 10.7.
Background: In flow cytometry, cells or beads pass a laser one at a time.

Where [3] appears, read: comparator as named in the value.
Where [4] appears, read: 100 μg intraperitoneally once a day from day 7, comparator as named in the value.

Entries after “also recorded” stand apart in the source; their conditions may differ.

Regarding “KIKKVKKKGRKGSKIKKVKKKGRKGGKMLKKRSPLTTGVYVKM (dNP2-KSY) [deleted variant of dNP2-ctCTLA-4]”, the “clinical symptoms (clinical score)” value in assay [1] (setting [3]) was “significantly superior in terms of clinical symptoms as compared to the TAT-ctCTLA-4 group and the PBS group”. The “number of infiltrated lymphocytes in the spinal cord” value (shortened to “number of infiltrated lymphocytes”) in assay [1] (setting [4]) is “significantly smaller number of infiltrated lymphocytes in the spinal cord as compared to the TAT-ctCTLA-4 group and the PBS group”. Turning to “KIKKVKKKGRKGSKIKKVKKKGRKKMLKKRS (dNP2-K1) [deleted variant of dNP2-ctCTLA-4 with only the K motif]”, the “effect of suppressing immune response (decrease of IL-17 and increase of Foxp3)” value in assay [2] is “exhibited the activity of inhibiting immune response”. Besides, in assay [1] (setting [4]), the “number of infiltrated lymphocytes” value was “significantly smaller number of infiltrated lymphocytes in the spinal cord as compared to the TAT-ctCTLA-4 group and the PBS group”. Take “KMLKKRS (K1) [Example K1, single K motif of CTLA4 without CPP, fatty acid or linker]”: the “effect of suppressing immune response (decrease of IL-17 and increase of Foxp3)” value in assay [2] was “did not show significant difference from Th17 (control group)”. For the same molecule, the “effect in the multiple sclerosis animal model (overall)” value in assay [1] (100 μg intraperitoneally once a day from day 7 to day 18) is given as “does not show significant effect on its own in the multiple sclerosis animal model”.

On to “KMLKKRSGGGGSKMLKKRS (K2(G4S)) [K2 (G4S)]”, for which, in assay [2], the “effect of suppressing immune response (decrease of IL-17 and increase of Foxp3)” value is listed as “the activity of inhibiting immune cells is significantly superior”. In addition, in assay [1] (setting [3]), the “clinical symptoms (clinical score)” value is reported as “significantly remarkable superior result in clinical symptoms than the K1 group”. Besides, in assay [1] (setting [4]), the “number of Treg cells (spinal cord)” value is “larger number of Treg cells than the K1 group” and the “number of infiltrated lymphocytes” value was “significantly number of infiltrated lymphocytes in the spinal cord as compared to the K1 group”. As for “KMLKKRSKMLKKRS (K2) [Example K2, two K motifs of CTLA4 linked, no linker]”, in assay [2] (4 days, versus dNP2-ctCTLA-4 positive control), the “effect of suppressing immune response compared to the dNP2-ctCTLA-4 group” value is reported as “comparable effect”. In addition, the “effect of suppressing immune response (decrease of IL-17 and increase of Foxp3)” value in assay [2] was “significantly better effect of suppressing immune response than the PBS (control group); also recorded: significantly superior effect of suppressing immune response as compared to the PBS group”. Further, the “clinical symptoms (clinical score)” value in assay [1] (setting [3]) is recorded as “significantly improved result for clinical symptoms as compared to the PBS group”. Further, the “number of infiltrated lymphocytes” value in assay [1] (setting [4]) is “significantly smaller number of infiltrated lymphocytes in the spinal cord than the PBS (control group)”. With PPTEPECE (P) [motif of CTLA4], the “effect of suppressing immune response (decrease of IL-17 and increase of Foxp3)” value in assay [2] is listed as “did not show significant difference from the dNP2 group or the Th17 group”. Turning to “RRRWCKRRRGGAMLAAASAMLAAAS (AP-K2 KA) [negative control, lysine and arginine residues of AP-K2 replaced with alanine]”, the “effect of suppressing immune response (decrease of IL-17 and increase of Foxp3)” value in assay [2] is “decreased slightly”.

In the case of RRRWCKRRRGGAMLKKRSAMLKKRS (AP-K2 1KA), the “effect of suppressing immune response (decrease of IL-17 and increase of Foxp3)” value in assay [2] is “decreased significantly”. In the case of RRRWCKRRRGGKALKKRSKALKKRS (AP-K2 MA), the “order of the reduction of IL-17 and the increase of Foxp3 among AP-K2 variants” value in assay [2] (4 days) was “in the order of the AP-K2 SA group, the AP-K2 2KA group, the AP-K2 3KA group and the AP-K2 MA group”. For the molecule RRRWCKRRRGGKMAKKRSKMAKKRS (AP-K2 LA), the “effect of suppressing immune response (decrease of IL-17 and increase of Foxp3)” value in assay [2] is given as “slightly decreased function of AP-L2”. As to RRRWCKRRRGGKMLAKRSKMLAKRS (AP-K2 2KA), in assay [2] (4 days), the “order of the reduction of IL-17 and the increase of Foxp3 among AP-K2 variants” value is “in the order of the AP-K2 SA group, the AP-K2 2KA group, the AP-K2 3KA group and the AP-K2 MA group”. In the case of RRRWCKRRRGGKMLKARSKMLKARS (AP-K2 3KA), the “order of the reduction of IL-17 and the increase of Foxp3 among AP-K2 variants” value in assay [2] (4 days) was “in the order of the AP-K2 SA group, the AP-K2 2KA group, the AP-K2 3KA group and the AP-K2 MA group”.

As to RRRWCKRRRGGKMLKKASKMLKKAS (AP-K2 RA), in assay [2], the “effect of suppressing immune response (decrease of IL-17 and increase of Foxp3)” value is on record as “decreased significantly”.

Consider RRRWCKRRRGGKMLKKRAKMLKKRA (AP-K2 SA), for which the “order of the reduction of IL-17 and the increase of Foxp3 among AP-K2 variants” value in assay [2] (4 days) was “in the order of the AP-K2 SA group, the AP-K2 2KA group, the AP-K2 3KA group and the AP-K2 MA group”. Regarding SPLTTGV (S) [motif of CTLA4], the “effect of suppressing immune response (decrease of IL-17 and increase of Foxp3)” value in assay [2] is “did not show significant difference from the dNP2 group or the Th17 group”. Same read-out and setting: next, “YFIPIN (Y2) [Example Y2, motif of CTLA4]”: “did not show significant difference from the dNP2 group or the Th17 group”; YVKM (Y1) [Example Y1, motif of CTLA4]: “did not show significant difference from the dNP2 group or the Th17 group”.

B1: KIKKVKKKGRKGSKIKKVKKKGRKGGKMLKKRSPLTTGVYVKMAATEAECEKQFQPYFIPIN (peptide)
chain: KIKKVKKKGRKGSKIKKVKKKGRKGGKMLKKRSPLTTGVYVKMAATEAECEKQFQPYFIPIN
notes: dNP2-ctCTLA-4 variant
For B1, the “clinical symptoms (clinical score)” value in assay [1] (setting [3]) was “significantly lower clinical symptoms as compared to the PBS group”. In addition, in assay [1] (setting [4]), the “number of infiltrated lymphocytes” value is “significantly larger number of infiltrated lymphocytes in the spinal cord as compared to the PBS group”.

(Values after patent publication US20240166687A1, “REGULATORY T CELL-INDUCING PEPTIDE AND COMPOSITION INCLUDING SAME FOR PREVENTING OR TREATING AUTOIMMUNE DISEASE” (IUCF-HYU (INDUSTRY-UNIVERSITY COOPERATION FOUNDATION …, priority 2021, published 2024).)
